IC50 data for 30 molecules are collected here from US12122767B2, “Bicyclic heterocycles as FGFR inhibitors” (Incyte Corporation, priority 2019, dated 2024).

T1 sequence (P22607 23-806): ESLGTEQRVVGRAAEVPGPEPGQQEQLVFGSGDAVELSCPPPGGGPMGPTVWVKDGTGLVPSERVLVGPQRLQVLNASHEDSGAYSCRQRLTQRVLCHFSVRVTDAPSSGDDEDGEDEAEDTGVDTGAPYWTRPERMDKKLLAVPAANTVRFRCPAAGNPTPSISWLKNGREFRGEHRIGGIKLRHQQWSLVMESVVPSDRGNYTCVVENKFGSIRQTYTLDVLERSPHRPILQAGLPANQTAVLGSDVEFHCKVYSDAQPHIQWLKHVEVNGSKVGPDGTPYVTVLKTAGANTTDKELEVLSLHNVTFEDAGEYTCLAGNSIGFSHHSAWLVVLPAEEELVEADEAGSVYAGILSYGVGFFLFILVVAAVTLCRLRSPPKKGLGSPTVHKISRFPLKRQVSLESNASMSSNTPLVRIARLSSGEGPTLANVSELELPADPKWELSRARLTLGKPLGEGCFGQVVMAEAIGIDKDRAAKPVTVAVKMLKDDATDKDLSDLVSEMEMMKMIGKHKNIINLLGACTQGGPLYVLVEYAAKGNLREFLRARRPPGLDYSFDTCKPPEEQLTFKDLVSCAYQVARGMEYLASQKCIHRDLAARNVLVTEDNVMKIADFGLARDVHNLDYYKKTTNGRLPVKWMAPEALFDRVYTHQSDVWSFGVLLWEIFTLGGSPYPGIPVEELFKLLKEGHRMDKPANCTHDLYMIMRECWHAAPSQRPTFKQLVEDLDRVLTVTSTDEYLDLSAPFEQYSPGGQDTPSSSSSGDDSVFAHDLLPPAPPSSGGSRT

This test addresses T1, FGFR3 enzyme (Millipore) (Homo sapiens, UniProt P22607).
T1 construct: purchased Millipore
Put plainly: FGFR Enzymatic Assay (peptide phosphorylation, FRET). It counts as biochemical. To be noted: pre-incubated for 4 hours; ATP 140 μM, peptide 500 nM. The method, then: The inhibitor potency of the exemplified compounds was measured in an enzyme assay that measures peptide phosphorylation using FRET measurements to detect product formation. Inhibitors were serially diluted in DMSO and a volume of 0.5 μL was transferred to the wells of a 384-well plate. For FGFR3, a 10 μL volume of FGFR3 enzyme (Millipore) diluted in assay buffer (50 mM HEPES, 10 mM MgCl2, 1 mM EGTA, 0.01% Tween-20, 5 mM DTT, pH 7.5) was added to the plate and pre-incubated for a time between 5-10 minutes and up to 4 hours. Appropriate controls (enzyme blank and enzyme with no inhibitor) were included on the plate. The assay was initiated by the addition of a 10 μL solution containing biotinylated EQEDEPEGDYFEWLE peptide substrate (SEQ ID NO: 1) and ATP (final concentrations of 500 nM and 140 μM respectively) in assay buffer to the wells. The plate was incubated at 25° C. for 1 hr. The reactions were ended with the addition of 10 μL/well of quench solution (50 mM Tris, 150 mM NaCl, 0.5 mg/mL BSA, pH 7.8; 30 mM EDTA with Perkin Elmer Lance Reagents at 3.75 nM Eu-antibody PY20 and 180 nM APC-Streptavidin). The plate was allowed to equilibrate for ˜1 hr before scanning the wells on a PheraStar plate reader (BMG Labtech).
GraphPad prism3 was used to analyze the data. The IC50 values were derived by fitting the data to the equation for a sigmoidal dose-response with a variable slope. Y=Bottom+(Top-Bottom)/(1+10^((Log IC50−X)*HillSlope)) where X is the logarithm of concentration and Y is the response.
Table 1 provides IC50 data for compounds of the invention assayed in the FGFR Enzymatic Assay after dilution in assay buffer, added to the plate and pre-incubated for 4 hours.
Regarding `COc1cc2[nH]nc(-c3cnn(C)c3)c2cc1C(=O)Nc1c(C)cc(C#N)cc1C` [Example 11, N-(4-Cyno-2,6-dimethylphenyl)-6-methoxy-3-(1-methyl-1H-pyrazol-4-yl)-1H-indazole-5-carboxamide], the IC50 was in the range of 10 to 30 nM.

As to `CCc1cccc(C)c1NC(=O)c1cc2c(-c3cnn(C)c3)n[nH]c2cc1OC` [Example 6, N-(2-Ethyl-6-methylphenyl)-6-methoxy-3-(1-methyl-1H-pyrazol-4-yl)-1H-indazole-5-carboxamide], the IC50 is below 10 nM.

With `COc1cc2[nH]nc(-c3cnn(C)c3)c2cc1C(=O)Nc1c(C)cc(N(C)C)cc1C` [Example 29, N-(4-(Dimethylamino)-2,6-dimethylphenyl)-6-methoxy-3-(1-methyl-1H-pyrazol-4-yl)-1H-indazole-5-carboxamide], the concentration for half-maximal inhibition (IC50) was 30 to 200 nM.

As for `COC(=O)N1CC(n2cc(-c3n[nH]c4cc(OC)c(C(=O)Nc5c(C)cccc5C)cc34)cn2)C1` [Example 31, Methyl 3-(4-(5-((2,6-dimethylphenyl)carbamoyl)-6-methoxy-1H-indazol-3-yl)-1H-pyrazol-1-yl)azetidine-1-carboxylate], the IC50 was below 10 nM.

Consider `Cc1cc2[nH]nc(-c3cnn(C)c3)c2cc1C(=O)Nc1c(C)cccc1C` [Example 12, N-(2,6-Dimethylphenyl)-6-methyl-3-(1-methyl-1H-pyrazol-4-yl)-1H-indazole-5-carboxamide], for which the IC50 is at least 200 nM.

`COc1cc2[nH]nc(-c3cnn(C4CCOC4)c3)c2cc1C(=O)Nc1c(C)cccc1C` (stereo not drawn) [Example 36, N-(2,6-Dimethylphenyl)-6-methoxy-3-(1-(tetrahydrofuran-3-yl)-1H-pyrazol-4-yl)-1H-indazole-5-carboxamide] displayed a 50% inhibitory concentration (IC50) below 10 nM.

With `COC(=O)N1CCC(n2cc(-c3n[nH]c4cc(OC)c(C(=O)Nc5c(C)cccc5C)cc34)cn2)CC1` [Example 24, Methyl 4-(4-(5-((2,6-dimethylphenyl)carbamoyl)-6-methoxy-1H-indazol-3-yl)-1H-pyrazol-1-yl)piperidine-1-carboxylate], the IC50 was below 10 nM.

`CCNC(=O)Cn1cc(-c2n[nH]c3cc(OC)c(C(=O)Nc4c(C)cccc4C)cc23)cn1` [Example 19, N-(2,6-Dimethylphenyl)-3-(1-(2-(ethylamino)-2-oxoethyl)-1H-pyrazol-4-yl)-6-methoxy-1H-indazole-5-carboxamide] displayed a 50% inhibitory concentration (IC50) of 10 to 30 nM.

On to `COc1cc2[nH]nc(-c3ccc(N4CCN(C)CC4)nc3)c2cc1C(=O)Nc1c(C)cccc1C` [Example 26, N-(2,6-Dimethylphenyl)-6-methoxy-3-(6-(4-methylpiperazin-1-yl)pyridin-3-yl)-1H-indazole-5-carboxamide], for which the IC50 is below 10 nM.

`COc1cc2[nH]nc(-c3cnn(C4CC4)c3)c2cc1C(=O)Nc1c(F)cccc1Cl` [Example 18, N-(2-Chloro-6-fluorophenyl)-3-(1-cyclopropyl-1H-pyrazol-4-yl)-6-methoxy-1H-indazole-5-carboxamide] showed an IC50 of 10 to 30 nM.

`COc1cc2[nH]nc(-c3cnn(C4CCC4)c3)c2cc1C(=O)Nc1c(C)cccc1C` [Example 43, 3-(1-Cyclobutyl-1H-pyrazol-4-yl)-N-(2,6-dimethylphenyl)-6-methoxy-1H-indazole-5-carboxamide] yielded a 50% inhibitory concentration (IC50) below 10 nM.

Consider `Cc1cccc(F)c1NC(=O)c1cc2c(-c3cnn(C)c3)n[nH]c2cc1Cl` [Example 15, 6-Chloro-N-(2-fluoro-6-methylphenyl)-3-(1-methyl-1H-pyrazol-4-yl)-1H-indazole-5-carboxamide], for which the IC50 was at least 200 nM.

Molecule `COc1cc2[nH]nc(-c3cnn(C4CCOCC4)c3)c2cc1C(=O)Nc1c(C)cccc1C` [Example 35, N-(2,6-Dimethylphenyl)-6-methoxy-3-(1-(tetrahydro-2H-pyran-4-yl)-1H-pyrazol-4-yl)-1H-indazole-5-carboxamide] showed a half-inhibitory concentration (IC50) below 10 nM.

For `COc1cc2[nH]nc(-c3cnn(C4CCN(C)CC4)c3)c2cc1C(=O)Nc1c(C)cccc1C` [Example 34, N-(2,6-Dimethylphenyl)-6-methoxy-3-(1-(1-methylpiperidin-4-yl)-1H-pyrazol-4-yl)-1H-indazole-5-carboxamide], the half-maximal inhibitory concentration (IC50) was below 10 nM.

As for `COc1cc2[nH]nc(-c3cnn(C)c3)c2cc1C(=O)Nc1c(C)cc(NC(C)=O)cc1C` [Example 28, N-(4-Acetamido-2,6-dimethylphenyl)-6-methoxy-3-(1-methyl-1H-pyrazol-4-yl)-1H-indazole-5-carboxamide], the 50% inhibitory concentration (IC50) lay within 30 to 200 nM.

Regarding `COc1cc2[nH]nc(-c3cnn(CC4CCNCC4)c3)c2cc1C(=O)Nc1c(C)cccc1C` [Example 39, N-(2,6-Dimethylphenyl)-6-methoxy-3-(1-(piperidin-4-ylmethyl)-1H-pyrazol-4-yl)-1H-indazole-5-carboxamide], the half-maximal inhibitory concentration (IC50) was 10 to 30 nM.

Take `COc1cc(C)c(NC(=O)c2cc3c(-c4cnn(C)c4)n[nH]c3cc2OC)c(C)c1` [Example 10, 6-Methoxy-N-(4-methoxy-2,6-dimethylphenyl)-3-(1-methyl-1H-pyrazol-4-yl)-1H-indazole-5-carboxamide]: the IC50 was 30 to 200 nM.

As to `COc1cc2[nH]nc(-c3cnn(C)c3)c2cc1C(=O)Nc1c(F)cccc1Cl` [Example 2, N-(2-Chloro-6-fluorophenyl)-6-methoxy-3-(1-methyl-1H-pyrazol-4-yl)-1H-indazole-5-carboxamide], the half-maximal inhibitory concentration (IC50) was below 10 nM.

Regarding `COc1cc2[nH]nc(-c3cnn(C4CCC4)c3)c2cc1C(=O)Nc1c(F)cccc1Cl` [Example 17, N-(2-Chloro-6-fluorophenyl)-3-(1-cyclobutyl-1H-pyrazol-4-yl)-6-methoxy-1H-indazole-5-carboxamide], the half-inhibitory concentration (IC50) is below 10 nM.

`COc1cc2[nH]nc(-c3cnn(C4CN(C(C)=O)C4)c3)c2cc1C(=O)Nc1c(C)cccc1C` [Example 33, 3-(1-(1-Acetylazetidin-3-yl)-1H-pyrazol-4-yl)-N-(2,6-dimethylphenyl)-6-methoxy-1H-indazole-5-carboxamide] gave an IC50 below 10 nM.

Consider `Cc1cc2[nH]nc(-c3cnn(C)c3)c2cc1C(=O)Nc1c(C)cccc1F` [Example 14, N-(2-Fluoro-6-methylphenyl)-6-methyl-3-(1-methyl-1H-pyrazol-4-yl)-1H-indazole-5-carboxamide], for which the half-inhibitory concentration (IC50) was at least 200 nM.

In turn, `Cn1cc(-c2n[nH]c3cc(Cl)c(C(=O)Nc4c(F)cccc4Cl)cc23)cn1` [Example 16, 6-Chloro-N-(2-chloro-6-fluorophenyl)-3-(1-methyl-1H-pyrazol-4-yl)-1H-indazole-5-carboxamide] had a half-inhibitory concentration (IC50) of at least 200 nM.

Turning to `CCCn1cc(-c2n[nH]c3cc(OC)c(C(=O)Nc4c(C)cccc4C)cc23)cn1` [Example 45, N-(2,6-Dimethylphenyl)-6-methoxy-3-(1-propyl-1H-pyrazol-4-yl)-1H-indazole-5-carboxamide], the concentration for half-maximal inhibition (IC50) was below 10 nM.

Molecule `COc1cc2[nH]nc(-c3cnn(C4CN(C(=O)N(C)C)C4)c3)c2cc1C(=O)Nc1c(C)cccc1C` [Example 22, 3-(1-(1-(Dimethylcarbamoyl)azetidin-3-yl)-1H-pyrazol-4-yl)-N-(2,6-dimethylphenyl)-6-methoxy-1H-indazole-5-carboxamide] yielded an IC50 below 10 nM.

Consider `COc1cc2[nH]nc(-c3cnn(C)c3)c2cc1C(=O)Nc1c(C)cccc1F` [Example 8, N-(2-Fluoro-6-methylphenyl)-6-methoxy-3-(1-methyl-1H-pyrazol-4-yl)-1H-indazole-5-carboxamide], for which the IC50 was below 10 nM.

`COc1cc2[nH]nc(-c3cnn(C4CN(S(C)(=O)=O)C4)c3)c2cc1C(=O)Nc1c(C)cccc1C` [Example 32, N-(2,6-Dimethylphenyl)-6-methoxy-3-(1-(1-(methylsulfonyl)azetidin-3-yl)-1H-pyrazol-4-yl)-1H-indazole-5-carboxamide] returned an IC50 below 10 nM.

Regarding `COc1cc2[nH]nc(-c3cnn(Cc4cccnc4)c3)c2cc1C(=O)Nc1c(C)cccc1C` [Example 41, N-(2,6-Dimethylphenyl)-6-methoxy-3-(1-(pyridin-3-ylmethyl)-1H-pyrazol-4-yl)-1H-indazole-5-carboxamide], the 50% inhibitory concentration (IC50) is 10 to 30 nM.

As to `COc1cc2[nH]nc(-c3cnn(-c4ccccn4)c3)c2cc1C(=O)Nc1c(C)cccc1C` [Example 42, N-(2,6-Dimethylphenyl)-6-methoxy-3-(1-(pyridin-2-yl)-1H-pyrazol-4-yl)-1H-indazole-5-carboxamide], the IC50 lay within 30 to 200 nM.

The molecule `COc1cc2[nH]nc(-c3ccc(N4CCN(C)CC4)cc3)c2cc1C(=O)Nc1c(C)cccc1C` [Example 21, N-(2,6-Dimethylphenyl)-6-methoxy-3-(4-(4-methylpiperazin-1-yl)phenyl)-1H-indazole-5-carboxamide] displayed a 50% inhibitory concentration (IC50) below 10 nM.

`COc1cc2[nH]nc(-c3cnn(C)c3)c2cc1C(=O)Nc1c(C)cccc1C(F)(F)F` [Example 4, 6-Methoxy-3-(1-methyl-1H-pyrazol-4-yl)-N-(2-methyl-6-(trifluoromethyl)phenyl)-1H-indazole-5-carboxamide] registered a 50% inhibitory concentration (IC50) below 10 nM.

A word on the IC50: it is the concentration that inhibits the measured activity by half.
